In article PMC10299677, “Fluorinated Benzofuran and Dihydrobenzofuran as Anti-Inflammatory and Potential Anticancer Agents” (International Journal of Molecular Sciences, 2023):
“Also recorded” adds a separate entry of the source.

Experiments:
COX-2 protein expression = COX-2 protein expression in LPS-treated macrophages (Western blot); assay type: cell-based, C57BL/6J mice; settings: 10 µM for compounds 1, 7, 9, 50 µM for others, LPS 24 h
Description: (§1) Figure 4 Effects of the fluorinated benzofuran and dihydrobenzofuran on COX-2 and NOS2 protein expressions. COX-2 and NOS2 protein expressions were assessed in macrophages incubated with only 10 µM for compounds 1, 7, and 9, and 50 µM for the other compounds, for 30 min prior to the addition of 10 ng/mL LPS for 24 h. β-actin was used as a loading control, and densitometric analysis was performed using ImageJ software (NIH, MA). Data are expressed as fold of LPS-treated macrophages and represented as mean ± SEM of 4 different experiments; * p < 0.05 versus LPS (one-way ANOVA followed by Dunnett’s test).
(§2) Macrophages were incubated with the compounds for 30 min prior to the addition of 10 ng/mL LPS for 24 h. Protein levels for COX-2 and NOS2 were detected in LPS-stimulated macrophages. As previously described, 10 µg of total protein was assessed. The primary antibodies were developed and characterized as previously described: for COX-2, mouse monoclonal antibody anti-COX-2 (clone COX-214, 1/5000); for NOS2, rabbit polyclonal antibody anti-NOS2 (dilution1/2000 [33]). Antibodies anti-phospho-NF-κB (3033S), phospho-IκBα (9246S), and total IκBα (4814S) were from Cell Signaling Technologies (Danvers, MA, USA). Total NF-κB C-20 (sc-372) was from Santa Cruz Biotechnologies (Dallas, TX, USA), and mouse β-actin (dilution 1/10,000) (Sigma-Aldrich, A5441). Clarity™ western ECL substrate (Bio-Rad Laboratories 10-5061) was used according to the manufacturer’s instructions to reveal positive bands visualized using Bio-Rad ChemiDoc. For Bcl-2 and cleaved PARP-1, HCT116 cells were plated in 6-well plates (200,000 cells per well) for 24 h, and treated with compounds 1 and 2 at 10, 25, and 50 µM for 72 h. Supernatants and cells were collected and lysed using RIPA lysis buffer containing inhibitors of protease. Western blot of Bcl-2 and cleaved PARP-1 was performed using 25 µg of total protein with a rabbit polyclonal antibody anti-Bcl-2 (1/500) (Santa Cruz Biotechnology, sc-492), rabbit polyclonal antibody anti-PARP-1 (1/1000) (Santa Cruz Biotechnology, sc-7150), and mouse anti-β-actin (dilution 1/10,000) (Sigma-Aldrich, A5441).
(§3) Densitometric analyses were performed using ImageJ software (NIH, MA, USA). The ratio of the different analyzed bands to β-actin was determined and data are represented as fold change compared to the LPS-treated cells. Percentage of viable cells for proliferation assay was determined as percentage to control (non-treated cells). For TUNEL assay, apoptotic cells were quantified, and results were expressed as percentage to positive cells (cleaved DNA) compared to control (non-treated cells). Statistical analysis was performed using one-way ANOVA, followed by Dunnett’s multiple comparisons test using GraphPad Prism software. Differences were considered significant when p < 0.05.

NOS2 protein expression = NOS2 protein expression in LPS-treated macrophages (Western blot); assay type: cell-based, C57BL/6J mice; settings: 50 µM, LPS 24 h
Description: as §1, §2
as §3, with “Differences were considered significant when p < 0.05.” left out

COX-1 = biological target: T1, COX-1 (Homo sapiens, UniProt P23219); assay: COX-1 activity: PGE2 from exogenous arachidonic acid in HEK-293 cells overexpressing COX-1; assay type: cell-based; settings: for effect on COX-1 activity: 10 µM for compounds 1, 7, 9, 50 µM for others, 10 µM arachidonic acid; for IC50: HEK-293 overexpressing COX-1, compounds 30 min prior to 10 µM arachidonic acid
T1 construct: expressed in transfected cells
Description: Figure 3 Effects of the fluorinated benzofuran and dihydrobenzofuran on COX-1 and COX-2 activities. (A) Illustration for COX-1 activity assay. HEK-293 cells stably overexpressing COX-1 are treated with the nine derivatives of benzofuran at concentrations of only 10 µM for compounds 1, 7, and 9, and 50 µM for the other compounds, 30 min prior to the addition of 10 µM arachidonic acid (AA). […] (B) COX-1 activity. […] Levels of PGE2 were very low in the absence of arachidonic acid (0.04 ± 0.01 ng/mL) and 104.3 ± 16.7 ng/mL for 10 µM AA. (C) Illustration for COX-2 activity determination. Macrophages are treated with 10 µM of aspirin (ASA) for 30 min to block basal COX activity, washed, and treated with 10 ng/mL LPS for 24 h to induce COX-2. Cells are then washed and incubated 30 min with 50 µM of the different compounds prior to the addition of 10 µM of AA. The produced PGE2 mainly reflects COX-2 activity. (D) COX-2 activity. Percentage of LPS-treated cells was calculated, and data are represented as mean ± SEM (n = 4); * p < 0.05 versus AA for COX-1 activity, and versus LPS + ASA + AA for COX-2 activity (one-way ANOVA followed by Dunnett’s test). […] Levels of PGE2 were very low in the absence of arachidonic acid (0.06 ± 0.01 ng/mL) and 71.7 ± 5.7 ng/mL for 10 µM AA.
COX-1 and COX-2 activities were performed as described previously in human embryonic kidney cell line (HEK-293) stably overexpressing COX-1 [19] and in macrophages, respectively. […] For both COX-1 and COX-2 assays, the benzofuran compounds were then added to the cells for 30 min prior to the incubation with 10 µM arachidonic acid for another 30 min. PGE2 was then measured using an enzyme immunoassay, as described previously.
IL-6, CCL2, nitrite (for NO), and PGE2 concentrations from 3–5 independent experiments were expressed as percentage of LPS alone and as mean ± SEM. COX activity was determined as percentage of PGE2 produced from exogenous arachidonic acid. Curve fitting and calculation of IC50 values were performed using GraphPad Prism (version 9.5.1 Software, La Jolla, CA, USA).

T1 sequence (P23219 24-599): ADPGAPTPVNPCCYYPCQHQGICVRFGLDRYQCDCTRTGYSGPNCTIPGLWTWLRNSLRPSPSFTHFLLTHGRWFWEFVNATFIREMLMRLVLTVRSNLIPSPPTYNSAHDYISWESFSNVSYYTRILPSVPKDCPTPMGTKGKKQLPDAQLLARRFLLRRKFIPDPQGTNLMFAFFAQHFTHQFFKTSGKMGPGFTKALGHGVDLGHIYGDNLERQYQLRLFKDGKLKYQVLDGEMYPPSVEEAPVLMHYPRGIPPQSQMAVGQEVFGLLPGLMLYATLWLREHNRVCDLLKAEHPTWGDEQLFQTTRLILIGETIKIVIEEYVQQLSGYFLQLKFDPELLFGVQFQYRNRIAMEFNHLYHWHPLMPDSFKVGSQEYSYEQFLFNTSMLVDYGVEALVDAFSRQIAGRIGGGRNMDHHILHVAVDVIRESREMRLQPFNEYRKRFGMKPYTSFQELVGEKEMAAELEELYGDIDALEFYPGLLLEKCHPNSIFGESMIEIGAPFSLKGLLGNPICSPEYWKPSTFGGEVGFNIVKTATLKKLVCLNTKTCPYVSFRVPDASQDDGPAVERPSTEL

| effect on COX-1 activity (COX-1) | IC50 (COX-1) [µM] | SMILES | effect on LPS-induced COX-2 protein expression (COX-2 protein expression) | effect on LPS-dependent NOS2 protein expression (NOS2 protein expression) |
| --- | --- | --- | --- | --- |
|  |  | O=C(O)/C=C1/Oc2ccc(Br)cc2C1(F)F [Compound 2] | significantly decreased | inhibition |
| without any effect |  | COC(=O)CC1(O)Oc2ccc(Br)cc2C1(F)F (centres unmarked) [Compound 8] |  |  |
| significantly reduced | 7.9 | O=C(O)/C=C1\Oc2ccc(Br)cc2C1(F)F [Compound 3] |  | inhibition |
| direct inhibitory effect |  | O=C(O)Cc1oc2ccc(-c3ccccc3)cc2c1F [Compound 5] | no effect | no effect |
|  |  | COC(=O)/C=C1/Oc2ccc(Br)cc2C1(F)F [Compound 1] | loss of this inhibitory effect |  |

| SMILES | effect on COX-1 activity (COX-1) | IC50 (COX-1) [µM] | effect on LPS-induced COX-2 protein expression (COX-2 protein expression) | effect on LPS-dependent NOS2 protein expression (NOS2 protein expression) |
| --- | --- | --- | --- | --- |
| C=C(C)c1ccc2oc(CC(=O)O)c(F)c2c1 [Compound 6] | significantly reduced; also recorded: direct inhibitory effect | 5 | no effect | no effect |
